{
  "source": "patent US10160755B2",
  "about": "(Plexxikon Inc., priority 2015, dated 2018)",
  "key": {"[1]": {"biological_target": "c-Kit (Homo sapiens, UniProt P10721)", "sequence (P10721 26-976)": "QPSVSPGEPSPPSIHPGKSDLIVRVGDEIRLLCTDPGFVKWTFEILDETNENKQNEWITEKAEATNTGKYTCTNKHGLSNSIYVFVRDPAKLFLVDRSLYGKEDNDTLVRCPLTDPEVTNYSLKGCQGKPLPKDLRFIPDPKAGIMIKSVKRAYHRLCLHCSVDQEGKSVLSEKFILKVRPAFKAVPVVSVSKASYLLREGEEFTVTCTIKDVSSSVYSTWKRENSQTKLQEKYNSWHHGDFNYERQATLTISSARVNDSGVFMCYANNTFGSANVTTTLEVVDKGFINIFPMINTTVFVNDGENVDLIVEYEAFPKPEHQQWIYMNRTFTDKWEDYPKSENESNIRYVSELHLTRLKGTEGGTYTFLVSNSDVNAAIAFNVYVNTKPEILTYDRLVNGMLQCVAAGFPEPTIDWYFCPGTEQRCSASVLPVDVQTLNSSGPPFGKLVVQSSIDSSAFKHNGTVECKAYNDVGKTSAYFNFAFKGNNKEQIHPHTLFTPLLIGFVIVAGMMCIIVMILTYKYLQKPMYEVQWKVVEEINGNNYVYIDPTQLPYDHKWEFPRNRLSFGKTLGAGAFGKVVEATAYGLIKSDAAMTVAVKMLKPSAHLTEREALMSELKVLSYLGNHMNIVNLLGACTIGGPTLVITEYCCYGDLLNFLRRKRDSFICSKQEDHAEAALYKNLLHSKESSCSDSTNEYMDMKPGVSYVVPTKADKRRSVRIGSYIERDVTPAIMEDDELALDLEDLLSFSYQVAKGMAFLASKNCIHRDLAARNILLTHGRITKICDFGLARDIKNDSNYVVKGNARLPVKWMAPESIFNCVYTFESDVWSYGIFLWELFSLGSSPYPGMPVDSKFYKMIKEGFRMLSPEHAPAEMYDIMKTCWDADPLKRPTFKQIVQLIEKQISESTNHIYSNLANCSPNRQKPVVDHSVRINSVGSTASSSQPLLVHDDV", "assay": "c-Kit biochemical assay (per US 2007/0032519)", "outline": "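Biochemical kinase inhibition run per US 2007/0032519; values reported as binned IC50 ranges (0.0001–1 μM, 1–10 μM, 10–200 μM).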"}, "[2]": {"biological_target": "T1, FLT3-ITD (Homo sapiens, UniProt P36888)", "T1 construct": "FLT3-ITD; Invitrogen #PV6190", "T1 sequence (P36888 1-993)": "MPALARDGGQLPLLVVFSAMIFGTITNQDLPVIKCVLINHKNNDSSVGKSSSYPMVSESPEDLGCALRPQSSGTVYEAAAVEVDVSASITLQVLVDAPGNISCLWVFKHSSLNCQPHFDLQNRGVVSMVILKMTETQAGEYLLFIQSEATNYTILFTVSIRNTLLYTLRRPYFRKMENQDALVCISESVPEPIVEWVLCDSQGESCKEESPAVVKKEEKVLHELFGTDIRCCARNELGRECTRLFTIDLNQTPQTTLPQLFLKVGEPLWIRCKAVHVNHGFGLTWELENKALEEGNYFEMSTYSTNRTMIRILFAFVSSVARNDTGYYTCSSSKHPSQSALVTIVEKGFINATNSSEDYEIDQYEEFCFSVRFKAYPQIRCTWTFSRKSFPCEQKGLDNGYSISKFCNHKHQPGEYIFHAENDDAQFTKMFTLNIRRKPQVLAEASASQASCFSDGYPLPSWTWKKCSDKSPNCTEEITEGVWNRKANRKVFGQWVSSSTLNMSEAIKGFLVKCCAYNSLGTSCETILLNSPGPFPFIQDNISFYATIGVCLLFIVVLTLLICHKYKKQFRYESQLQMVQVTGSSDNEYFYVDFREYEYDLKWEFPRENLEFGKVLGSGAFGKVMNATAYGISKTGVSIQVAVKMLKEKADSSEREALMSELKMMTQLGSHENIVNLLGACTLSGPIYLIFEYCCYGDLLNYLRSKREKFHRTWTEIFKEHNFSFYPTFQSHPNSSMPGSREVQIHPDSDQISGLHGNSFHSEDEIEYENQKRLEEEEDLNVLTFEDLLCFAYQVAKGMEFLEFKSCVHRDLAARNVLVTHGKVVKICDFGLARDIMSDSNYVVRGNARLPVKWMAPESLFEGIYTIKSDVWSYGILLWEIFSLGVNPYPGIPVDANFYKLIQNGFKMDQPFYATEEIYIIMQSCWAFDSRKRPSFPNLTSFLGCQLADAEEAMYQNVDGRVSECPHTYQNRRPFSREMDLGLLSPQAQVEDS", "assay": "FLT3-ITD biochemical kinase assay (AlphaScreen)", "outline": "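AlphaScreen read-out of tyrosine phosphorylation of a 30 nM biotinylated poly(Glu4-Tyr) substrate, captured on streptavidin donor and PY20 acceptor beads at room temperature. ATP for IC50 work was 100 μM with FLT3-ITD and 10 μM with FLT3-D835Y; reduced 580 nm proximity signal reflects kinase inhibition.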"}},
  "data": [
    {"compound": "CC(C)(O)c1ncc(-c2cnc3[nH]cc(-c4ccc5ncn(C(C)(C)C)c5c4)c3n2)cn1", "note": "[P-380, 2-[5-[7-(3-tert-butylbenzimidazol-5-yl)-5H-pyrrolo[2,3-b]pyrazin-2-yl]pyrimidin-2-yl]propan-2-ol]", "values": [
      {"measurement": "IC50", "setting": "[1]", "value": "1 to 10", "unit": "µM"},
      {"measurement": "IC50", "setting": "[2]", "value": "0.0001 to 1", "unit": "µM"}
    ]},
    {"compound": "COc1cnc2[nH]cc(-c3ccc4ncn(C5CCC5)c4c3)c2c1", "note": "[P-061, 1-cyclobutyl-6-(5-methoxy-1H-pyrrolo[2,3-b]pyridin-3-yl)benzimidazole]", "values": [
      {"measurement": "IC50", "setting": "[1]", "value": "1 to 10", "unit": "µM"},
      {"measurement": "IC50", "setting": "[2]", "value": "0.0001 to 1", "unit": "µM"}
    ]},
    {"compound": "CC(C)(C)n1cnc2ccc(-c3c[nH]c4ncc(-c5cnc(F)c(F)c5)nc34)cc21", "note": "[P-390, 7-(3-tert-butylbenzimidazol-5-yl)-2-(5,6-difluoro-3-pyridyl)-5H-pyrrolo[2,3-b]pyrazine]", "values": [
      {"measurement": "IC50", "setting": "[1]", "value": "10 to 200", "unit": "µM"},
      {"measurement": "IC50", "setting": "[2]", "value": "1 to 10", "unit": "µM"}
    ]},
    {"compound": "CC(C)(C)n1cnc2ccc(-c3c[nH]c4ncc(-c5cnc(C#N)nc5)nc34)cc21", "note": "[P-352, 5-[7-(3-tert-butylbenzimidazol-5-yl)-5H-pyrrolo[2,3-b]pyrazin-2-yl]pyrimidine-2-carbonitrile]", "values": [
      {"measurement": "IC50", "setting": "[1]", "value": "10 to 200", "unit": "µM"},
      {"measurement": "IC50", "setting": "[2]", "value": "0.0001 to 1", "unit": "µM"}
    ]},
    {"compound": "Cc1ccc(-c2cnc3[nH]cc(-c4ccc5ncn(C(C)(C)C)c5c4)c3n2)cn1", "note": "[P-388, 7-(3-tert-butylbenzimidazol-5-yl)-2-(6-methyl-3-pyridyl)-5H-pyrrolo[2,3-b]pyrazine]", "values": [
      {"measurement": "IC50", "setting": "[1]", "value": "0.0001 to 1", "unit": "µM"},
      {"measurement": "IC50", "setting": "[2]", "value": "0.0001 to 1", "unit": "µM"}
    ]},
    {"compound": "CC(C)(C)n1cnc2ccc(-c3c[nH]c4ncc(-c5ccnc(C#N)c5)nc34)cc21", "note": "[P-301, 4-[7-(3-tert-butylbenzimidazol-5-yl)-5H-pyrrolo[2,3-b]pyrazin-2-yl]pyridine-2-carbonitrile]", "values": [
      {"measurement": "IC50", "setting": "[1]", "value": "10 to 200", "unit": "µM"}
    ]},
    {"compound": "CC(C)(C)n1cnc2ccc(-c3c[nH]c4ncc(-c5cnc(O)nc5)nc34)cc21", "note": "[P-363, 5-[7-(3-tert-butylbenzimidazol-5-yl)-5H-pyrrolo[2,3-b]pyrazin-2-yl]pyrimidin-2-ol]", "values": [
      {"measurement": "IC50", "setting": "[1]", "value": "1 to 10", "unit": "µM"},
      {"measurement": "IC50", "setting": "[2]", "value": "0.0001 to 1", "unit": "µM"}
    ]},
    {"compound": "COc1ncc(-c2cnc3[nH]cc(-c4ccc5ncn(C(C)(C)C)c5c4)c3n2)cc1C#N", "note": "[P-405, 5-[7-(3-tert-butylbenzimidazol-5-yl)-5H-pyrrolo[2,3-b]pyrazin-2-yl]-2-methoxy-pyridine-3-carbonitrile]", "values": [
      {"measurement": "IC50", "setting": "[1]", "value": "10 to 200", "unit": "µM"},
      {"measurement": "IC50", "setting": "[2]", "value": "0.0001 to 1", "unit": "µM"}
    ]}
  ]
}
